pIC50: −log10 of the molar value. Blank lines part the entries; values can stand above or below the compound they belong to.
Assays:
[1] = biological target: T1, recombinant His-tag Y220C p53 DNA binding domain (Homo sapiens, UniProt P04637, Y220C); assay: TR-FRET DNA binding assay (SC150); assay type: biochemical
T1 construct: Y220C p53 DBD protein (amino acids #94-312); made in house
Text: At the outset of our hit generation campaign, several small molecules targeting the p53 Y220C mutant protein were identified. Two notable examples, supported by crystallographic data, were the compounds from the carbazole series[6] (PhiKan83) and the iodophenol series[7] (PK1596) (Figure 1). To assess the in vitro potency of the p53 Y220C reactivators, a time-resolved fluorescence resonance energy transfer (FRET) assay was developed. In this assay, recombinant His-tag Y220C p53 DNA binding domain binds to biotin-labeled consensus DNA, and the FRET signal is measured between the allophycocyanin-conjugated anti-His-tag antibody and europium-conjugated streptavidin. The […] concentration required to increase DNA binding by 1.5-fold (SC150) could then be determined. The carbazole compound (PhiKan83) enhanced DNA binding with an SC150 of 37.2 μM. […]
Time-Resolved Fluorescence Resonance Energy Transfer (TR-FRET) Assay
DNA binding activity was measured by the TR-FRET assay. In this assay, the recombinant His6-tag Y220C p53 DNA binding domain (DBD) protein binds to biotin labeled consensus DNA. The binding of recombinant His6-tag Y220C p53 DBD protein and biotin-labeled consensus DNA is detected by the fluorescence resonance energy transfer (FRET) between allophycocyanin (APC) conjugated anti-His6 tag antibody and Europium-(Eu) conjugated Streptavidin. Test compounds, at 2 mM stock in DMSO, were diluted t hr e e-f ol d in serial dilutions in DMSO and 1.2 µL per well were added into 384-well polypropylene black plates (NUNC). Subsequently, 30 µL per well of 181 nM recombinant His6-tag Y220C p53 DBD protein (amino acids #94-312) and 9.1 nM of APC conjugated anti-His6 tag antibody (Columbia Biosciences) in ice-cold Assay Buffer 1 (50 mM Tris-HCl, pH 7.4, 75 mM KCl, 0.75 mM DTT and 0.2 mg/mL bovine serum albumin [BSA]) was added. As a background control, 30 µL of Assay Buffer 1 containing 9.1 nM of APC anti-His6 antibody (no Y220C protein) was also added into a second set of serial diluted compound plates. The samples were centrifuged at 1,200 rpm (Eppendorf 5810R plate centrifuge) for 1 minute and incubated at room temperature (20 °C) for 15 min. The samples were then incubated at 27 °C in a water bath for 48 min. Afterwards, 5 µL per well of 145 nM biotin labeled oligonucleotide from a consensus DNA p53 response element (a DNA duplex with 5’ to 3’sequence of […]
and biotin attached to the 3’ end of the complementary DNA) and 8.8 nM Eu-conjugated streptavidin (Columbia Biosciences) in Assay Buffer 2 (50 mM Tris-HCl, pH 7.4, 75 mM KCl and 0.2 mg/mL BSA) were added. The samples were centrifuged at 1,200 rpm for 1 min and incubated at room temperature (20 °C) for 20 min. Assay signals were monitored by reading excitation at 340 nm, and emission fluorescence at 615 and 665 nm, on an Envision reader (Perkin El mer). Normalized TR -FRET assay signal (Rn) was calculated by the formula:
Rn = [(A − B a − C × (D − Bd))/(D − Bd)] × (Dc − B d),
C = (Ac − B a)/(Dc − B d), […]

[2] = system: NUGC-3, gastric cancer cell line with a TP53 Y220C mutation; assay: MTT cell proliferation assay; assay type: cell-based, human; details: for pIC50: Homo sapiens, NUGC-3, 120 h, NUGC-3 cells, five days incubation
Procedure: We also evaluated the effects of these compounds on the growth and viability of four cancer cell lines in vitro. Two of the cell lines (NUGC-3, gastric cancer cell line with a TP53 Y220C mutation and T3M-4, pancreatic carcinoma cell line) have the TP53 Y220C mutation leading to the p53 Y220C mutant protein; SJSA-1 is a p53 WT cell line, and NUGC-3-KO is an isogenic p53 knockout cell line.[11] After incubating the cells with the compounds for five days, cell viability was measured using the 3-(4,5-dimethylthiazol-2-yl)-2,5-diphenyltetrazolium bromide (MTT) assay.
C = (Ac − B a)/(Dc − B d),
Prism (GraphPad) or XLfit software (IDBS).
Cells were seeded at an appropriate
Compounds were tested at eight concentrations with 2-fold serial dilutions. […]
with a reference wavelength of 650 nm. […]
untreated cells (control). […]

[3] = Pharmacokinetic study in mice; details: Table 3, PO, 50 mg/kg
Procedure: Pharmacokinetic parameters were evaluated in female CD-1 mice. Animals received an oral gavage dose of 50 mg/kg of the test article. The test article was formulated in a solution containing 2% hydroxypropyl
cellulose and 0.5% Tween 80 in water. Blood samples were collected at 0.5, 1, 2, 4, 7, and 24 h post dose.
Blood samples were processed into plasma, and the concentrations of the test article were determined by
LC-MS/MS. P harmacokinetic parameters were calculated using the Phoenix WinNonlin 6.3 program,
employing a non- compartmental model 200.

[4] = Table 1, concentration required to increase DNA binding by 1.5-fold
[5] = Table 3, concentration required to increase DNA binding by 1.5-fold
[6] = Figure 1, enhancement of DNA binding
[7] = Table 2, concentration required to increase DNA binding by 1.5-fold

SC150 [1, 4]: 6.4 µM
SMILES: CCn1c(C#CCNc2ccc(C(C)(C)C)nc2)cc2cc(CNC)ccc21 [Compound 5, 6-(tert-butyl)-3-(3-{1-ethyl-5-[(methylamino)methyl]-2-indolyl}-2-propynylamino)pyridine]

SC150 [1, 4]: 0.030 µM
SMILES: CN1CCC(Nc2cccc3c2cc(C#CCNc2ccc(S(C)(=O)=O)cc2OC(F)(F)F)n3CC(F)(F)F)CC1 [Compound 14, N-(1-methyl-4-piperidyl)-2-[3-[4-methylsulfonyl-2-(trifluoromethoxy)anilino]prop-1-ynyl]-1-(2,2,2-trifluoroethyl)indol-4-amine]

SC150 [1, 4]: 0.48 µM
SMILES: CC(C)(C#N)c1ccc(NCC#Cc2cc3cc(CNC4CCOCC4)ccc3n2CC(F)(F)F)cn1 [Compound 7, 2-methyl-2-(5-((3-(5-(((tetrahydro-2H-pyran-4-yl)amino)methyl)-1-(2,2,2-trifluoroethyl)-1H-indol-2-yl)prop-2-yn-1-yl)amino)pyridin-2-yl)propanenitrile]

SC150 [1, 5]: 0.008 µM
pIC50 ([2]; Table 3): 6.35
Mouse PK Exposure AUC0-last [3]: 39774 ng·h/mL
Mouse PK Exposure Cmax [3]: 4473 ng/mL
SMILES: COc1cc(C(N)=O)ccc1NCC#Cc1cc2c(N[C@@H]3CCN(C)C[C@@H]3F)cccc2n1CC(F)(F)F [Compound 25, 4-[3-[4-[[(3S,4R)-3-fluoro-1-methyl-4-piperidyl]amino]-1-(2,2,2-trifluoroethyl)indol-2-yl]prop-2-ynyl-amino]-3-methoxy-benzamide]

SC150 [1, 4]: 6.3 µM
SMILES: CCn1c(C#CCNc2ccc(C)nc2)cc2cc(CNC3CCOCC3)ccc21 [Compound 4, N-(3-(1-ethyl-5-(((tetrahydro-2H-pyran-4-yl)amino)methyl)-1H-indol-2-yl)prop-2-yn-1-yl)-6-methylpyridin-3-amine]

SC150 [1, 6]: 1.6 µM
SMILES: CCN(CC)C1CCN(Cc2cc(C#CCNc3ccccc3)cc(I)c2O)CC1 [PK1596, reference compound]

SC150 [1, 4]: 0.054 µM
SMILES: CN1CCC(Nc2cccc3c2cc(C#CCNc2ccc(C(C)(C)C#N)nc2)n3CC(F)(F)F)CC1 [Compound 10, 2-methyl-2-(5-((3-(4-((1-methylpiperidin-4-yl)amino)-1-(2,2,2-trifluoroethyl)-1H-indol-2-yl)prop-2-yn-1-yl)amino)pyridin-2-yl)propanenitrile]

SC150 [1, 4]: 0.030 µM
SMILES: Cc1cc(S(C)(=O)=O)ccc1NCC#Cc1cc2c(NC3CCN(C)CC3)cccc2n1CC(F)(F)F [Compound 12, 2-[3-(2-methyl-4-methylsulfonyl-anilino)prop-1-ynyl]-N-(1-methyl-4-piperidyl)-1-(2,2,2-trifluoroethyl)indol-4-amine]

SC150 [1, 4]: 1.300 µM
SMILES: CC(C)(C#N)c1ccc(NCC#Cc2cc3c(CNC4CCOCC4)cccc3n2CC(F)(F)F)cn1 [Compound 8, 2-methyl-2-(5-((3-(4-(((tetrahydro-2H-pyran-4-yl)amino)methyl)-1-(2,2,2-trifluoroethyl)-1H-indol-2-yl)prop-2-yn-1-yl)amino)pyridin-2-yl)propanenitrile]

SC150 [1, 7]: 0.009 µM
pIC50 ([2]; Table 2): 6.15
SMILES: COc1cc(S(C)(=O)=O)ccc1NCC#Cc1cc2c(N[C@@H]3CCN(C)C[C@@H]3F)cccc2n1CC(F)(F)F (racemic) [Compound 20, Rac-N-[(3S,4R)-3-fluoro-1-methyl-4-piperidyl]-2-[3-(2-methoxy-4-methylsulfonyl-anilino)prop-1-ynyl]-1-(2,2,2-trifluoroethyl)indol-4-amine]
fold higher potency in the MTT assay ([2]; among the two pairs of stereoisomers from fluorine substitution of compound 13): over 3 fold

SC150 [1, 7]: 0.02 µM
pIC50 ([2]; Table 2): 5.52
SMILES: COc1cc(S(C)(=O)=O)ccc1NCC#Cc1cc2c(N[C@@H]3CCN(C)C[C@H]3F)cccc2n1CC(F)(F)F (racemic) [Compound 19, Rac-N-[(3R,4R)-3-fluoro-1-methyl-4-piperidyl]-2-[3-(2-methoxy-4-methylsulfonyl-anilino)prop-1-ynyl]-1-(2,2,2-trifluoroethyl)indol-4-amine]

SC150 [1, 5]: 0.005 µM
pIC50 ([2]; Table 3): 5.93
SMILES: COc1cc(C(=O)NC2CCN(C)CC2)ccc1NCC#Cc1cc2c(N[C@@H]3CCN(C)C[C@@H]3F)cccc2n1CC(F)(F)F [Compound 31, 4-[3-[4-[[(3S,4R)-3-fluoro-1-methyl-4-piperidyl]amino]-1-(2,2,2-trifluoroethyl)indol-2-yl]prop-2-ynyl-amino]-3-methoxy-N-(1-methyl-4-piperidyl)benzamide]

SC150 [1, 5]: 0.007 µM
pIC50 ([2]; Table 3): 6.27
Mouse PK Exposure AUC0-last [3]: 3261 ng·h/mL
Mouse PK Exposure Cmax [3]: 807 ng/mL
SMILES: COc1cc(C(=O)NC2CCOCC2)ccc1NCC#Cc1cc2c(N[C@@H]3CCN(C)C[C@@H]3F)cccc2n1CC(F)(F)F [Compound 27, 4-((3-(4-(((3S,4R)-3-fluoro-1-methylpiperidin-4-yl)amino)-1-(2,2,2-trifluoroethyl)-1H-indol-2-yl)prop-2-yn-1-yl)amino)-3-methoxy-N-(tetrahydro-2H-pyran-4-yl)benzamide]

SC150 [1, 4]: >150 µM
SMILES: CCn1c(C#CCNc2ccccc2)cc2cc(C(=O)NC3CCN(C)CC3)ccc21 [Compound 2, 2-(3-anilinoprop-1-ynyl)-1-ethyl-N-(1-methyl-4-piperidyl)indole-5-carboxamide]

SC150 [1, 4]: 0.027 µM
SMILES: CN1CCC(Nc2cccc3c2cc(C#CCNc2ccc(S(C)(=O)=O)cc2)n3CC(F)(F)F)CC1 [Compound 11, N-(1-methylpiperidin-4-yl)-2-(3-((4-(methylsulfonyl)phenyl)amino)prop-1-yn-1-yl)-1-(2,2,2-trifluoroethyl)-1H-indol-4-amine]

SC150 [1, 5]: 0.009 µM
pIC50 ([2]; Table 3): 6.10
SMILES: COc1cc(C(=O)N2CCN(C)CC2)ccc1NCC#Cc1cc2c(N[C@@H]3CCN(C)C[C@@H]3F)cccc2n1CC(F)(F)F [Compound 30, [4-[3-[4-[[(3S,4R)-3-fluoro-1-methyl-4-piperidyl]amino]-1-(2,2,2-trifluoroethyl)indol-2-yl]prop-2-ynyl-amino]-3-methoxy-phenyl]-(4-methylpiperazin-1-yl)methanone]

SC150 [1, 6]: 37.2 µM
SMILES: CCn1c2ccccc2c2cc(CNC)ccc21 [PhiKan83, reference compound]

SC150 [1, 4]: 0.105 µM
SMILES: CC(C)(C#N)c1ccc(NCC#Cc2cc3c(NC4CCOCC4)cccc3n2CC(F)(F)F)cn1 [Compound 9, 2-methyl-2-(5-((3-(4-((tetrahydro-2H-pyran-4-yl)amino)-1-(2,2,2-trifluoroethyl)-1H-indol-2-yl)prop-2-yn-1-yl)amino)pyridin-2-yl)propanenitrile]

SC150 [1, 4]: 26.5 µM
SMILES: CCn1c(C#CCNc2ccccc2)cc2cc(CNC3CCOCC3)ccc21 [Compound 3, N-((1-ethyl-2-(3-(phenylamino)prop-1-yn-1-yl)-1H-indol-5-yl)methyl)tetrahydro-2H-pyran-4-amine]

SC150 [1, 4]: 1.3 µM
SMILES: CCn1c(C#CCNc2ccc(C(C)(C)C#N)nc2)cc2cc(CNC3CCOCC3)ccc21 [Compound 6, 2-(5-((3-(1-ethyl-5-(((tetrahydro-2H-pyran-4-yl)amino)methyl)-1H-indol-2-yl)prop-2-yn-1-yl)amino)pyridin-2-yl)-2-methylpropanenitrile]
